The structures appear in SMILES notation.

This note sets out measurements from ChEMBL document CHEMBL1159252, “Flavonoid inhibitors of trypsin and leucine aminopeptidase: a proposed mathematical model for IC50 estimation” (J Nat Prod, 1995).

The target in one experiment is T1, Cytosol aminopeptidase (Sus scrofa, UniProt P28839).
T1 sequence (P28839 whole entry): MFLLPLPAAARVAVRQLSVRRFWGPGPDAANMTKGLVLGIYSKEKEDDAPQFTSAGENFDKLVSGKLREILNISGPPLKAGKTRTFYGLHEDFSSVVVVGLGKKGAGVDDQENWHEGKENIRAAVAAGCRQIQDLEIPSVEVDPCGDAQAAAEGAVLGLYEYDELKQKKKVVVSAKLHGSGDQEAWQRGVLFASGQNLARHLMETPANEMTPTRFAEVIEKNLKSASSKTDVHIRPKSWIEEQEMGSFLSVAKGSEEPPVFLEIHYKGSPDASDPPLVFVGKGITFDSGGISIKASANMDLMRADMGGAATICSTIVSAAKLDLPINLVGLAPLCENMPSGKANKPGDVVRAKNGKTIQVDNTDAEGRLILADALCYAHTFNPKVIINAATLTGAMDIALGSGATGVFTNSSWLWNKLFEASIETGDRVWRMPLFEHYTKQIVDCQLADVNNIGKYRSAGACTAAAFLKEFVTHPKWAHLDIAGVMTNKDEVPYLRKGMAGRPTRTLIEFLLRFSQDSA
Nature of the experiment: Inhibition of pig kidney cytosolic Leucyl aminopeptidase.

Experiment [1] is described as follows: Inhibition of bovine pancreas trypsin. Set-up: species or system Bos taurus.

In turn, `O=c1cc(-c2ccc(O)c(O)c2)oc2ccccc12` showed an IC50 against Cytosol aminopeptidase of 35.1 µM.

Turning to `O=c1cc(-c2ccc(O)cc2)oc2cc(O)cc(O)c12` [APIGENIN], in experiment [1], the IC50 came out at 142 µM.

With `O=c1c(O)c(-c2ccc(O)cc2)oc2cc(O)cc(O)c12` [KAEMPFEROL], 106 µM corresponded to half-maximal inhibition in experiment [1] (IC50).

With `O=c1cc(-c2ccc(O)c(O)c2)oc2cc(O)cc(O)c12` [LUTEOLIN], the IC50 in experiment [1] is 35.3 µM; against Cytosol aminopeptidase, 49.6 µM.

In experiment [1], `O=c1c(O)c(-c2ccc(O)cc2O)oc2cc(O)cc(O)c12` [MORIN] showed an IC50 of 111 µM.

`O=c1c(O)c(-c2cc(O)c(O)c(O)c2)oc2cc(O)cc(O)c12` [MYRICETIN]: the IC50 in experiment [1] was 10.2 µM.

Consider `O=c1c(O)c(-c2ccc(O)c(O)c2)oc2cc(O)cc(O)c12` [QUERCETIN], for which the results for the IC50 (in experiment [1]; against Cytosol aminopeptidase) were 7.1 µM and 34.3 µM, respectively.

In turn, `COc1cc(C2Oc3c(O)cc([C@H]4Oc5cc(O)cc(O)c5C(=O)[C@@H]4O)cc3C2CO)ccc1O` (stereo not given in full) [SILICRISTIN] gave an IC50 in experiment [1] of 144 µM.

The IC50 is the concentration at which inhibition is half-maximal.
